Entries after “also recorded” stand apart in the source; their conditions may differ.
Legend:
PLY [1] = target: T1, PLY (Streptococcus pneumoniae, UniProt Q7ZAK5); test: cell-based; format: cell-based
wild-type PLY [2] = target: T2, wild-type PLY (Streptococcus pneumoniae, UniProt Q7ZAK5); test: biochemical; format: binding
[3] = target: protein tyrosine phosphatase PTP1B (Homo sapiens, UniProt P18031); format: biochemical
[4] = system: Streptococcus pneumoniae (S.pn.) D39Δcps; format: cell-based
perforin = perforin (Homo sapiens, UniProt P14222); format: cell-based
SARS-CoV2 main protease = SARS-CoV2 main protease (Severe acute respiratory syndrome coronavirus 2, UniProt P0DTD1); format: biochemical
PLY [5] = target: T1, PLY
K562 cells = conditions: 6 µM
wild-type PLY [6] = target: T2, wild-type PLY; test: cell-based; format: cell-based
Perfringolysin O (PFO) = Perfringolysin O (PFO) (Clostridium perfringens, UniProt P0C2E9); test: cell-based
Perfringolysin O (PFO), sequence (P0C2E9 29-500 limits assumed): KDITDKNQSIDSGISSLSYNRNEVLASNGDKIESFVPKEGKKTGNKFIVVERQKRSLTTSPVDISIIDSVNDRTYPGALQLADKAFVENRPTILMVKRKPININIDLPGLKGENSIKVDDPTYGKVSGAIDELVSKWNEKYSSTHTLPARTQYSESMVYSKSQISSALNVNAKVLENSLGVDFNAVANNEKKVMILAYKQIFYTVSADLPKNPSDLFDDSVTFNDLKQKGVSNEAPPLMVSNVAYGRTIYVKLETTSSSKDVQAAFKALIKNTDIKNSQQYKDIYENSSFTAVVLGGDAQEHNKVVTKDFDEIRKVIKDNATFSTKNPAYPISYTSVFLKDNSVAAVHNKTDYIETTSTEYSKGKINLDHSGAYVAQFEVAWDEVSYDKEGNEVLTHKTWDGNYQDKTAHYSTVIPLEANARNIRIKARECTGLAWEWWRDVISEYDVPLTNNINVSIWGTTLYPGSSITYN

T2 sequence (Q7ZAK5 whole entry, looked up): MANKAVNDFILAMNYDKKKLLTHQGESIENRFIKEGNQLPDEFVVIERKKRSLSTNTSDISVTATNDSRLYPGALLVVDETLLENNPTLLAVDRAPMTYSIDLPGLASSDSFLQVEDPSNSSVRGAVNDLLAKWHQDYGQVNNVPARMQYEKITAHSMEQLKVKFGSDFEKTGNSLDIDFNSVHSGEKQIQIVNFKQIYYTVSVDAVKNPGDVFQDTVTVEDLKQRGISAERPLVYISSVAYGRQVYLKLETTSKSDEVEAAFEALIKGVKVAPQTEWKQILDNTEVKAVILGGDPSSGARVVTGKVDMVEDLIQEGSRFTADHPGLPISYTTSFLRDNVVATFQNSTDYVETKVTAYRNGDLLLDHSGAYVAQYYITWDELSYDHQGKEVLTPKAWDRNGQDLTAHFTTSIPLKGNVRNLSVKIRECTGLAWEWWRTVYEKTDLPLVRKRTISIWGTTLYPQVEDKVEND
T1 sequence (Q7ZAK5 whole entry, looked up): as above
protein tyrosine phosphatase PTP1B, sequence (P18031 whole entry): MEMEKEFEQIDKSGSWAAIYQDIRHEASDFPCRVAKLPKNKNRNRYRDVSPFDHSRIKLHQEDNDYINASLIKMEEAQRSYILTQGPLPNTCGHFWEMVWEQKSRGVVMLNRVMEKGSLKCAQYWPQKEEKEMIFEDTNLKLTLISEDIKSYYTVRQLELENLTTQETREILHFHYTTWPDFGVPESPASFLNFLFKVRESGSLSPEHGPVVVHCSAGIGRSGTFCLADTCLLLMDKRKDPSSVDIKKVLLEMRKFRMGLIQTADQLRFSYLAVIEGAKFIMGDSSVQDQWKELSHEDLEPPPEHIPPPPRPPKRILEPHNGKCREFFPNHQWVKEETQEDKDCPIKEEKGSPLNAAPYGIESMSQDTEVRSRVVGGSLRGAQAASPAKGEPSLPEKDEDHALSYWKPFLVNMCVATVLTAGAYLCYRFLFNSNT
perforin, sequence (P14222 22-555): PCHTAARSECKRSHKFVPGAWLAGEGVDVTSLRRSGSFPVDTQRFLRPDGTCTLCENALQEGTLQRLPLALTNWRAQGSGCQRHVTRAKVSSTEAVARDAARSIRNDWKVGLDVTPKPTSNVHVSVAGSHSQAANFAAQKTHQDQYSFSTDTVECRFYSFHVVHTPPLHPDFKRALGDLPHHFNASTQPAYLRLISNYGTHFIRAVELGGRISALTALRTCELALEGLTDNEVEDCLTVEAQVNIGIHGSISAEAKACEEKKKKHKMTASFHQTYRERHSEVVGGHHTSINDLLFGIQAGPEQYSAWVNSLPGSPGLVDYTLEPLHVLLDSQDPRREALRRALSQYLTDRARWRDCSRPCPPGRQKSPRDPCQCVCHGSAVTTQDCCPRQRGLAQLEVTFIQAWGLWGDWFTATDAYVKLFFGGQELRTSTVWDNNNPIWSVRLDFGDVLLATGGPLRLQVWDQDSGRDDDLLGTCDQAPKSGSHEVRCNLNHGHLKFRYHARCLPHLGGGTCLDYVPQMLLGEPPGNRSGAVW

Cc1cc(C)cc(N2C(=O)NC(=O)/C(=C\c3ccc(-c4ccc(Cl)cc4Cl)o3)C2=O)c1 [PB-3]
Inhibition of PLY-induced cellular damage, LDH assay (qualitative) (PLY [1]): significant concentration-dependent inhibition of PLY | prevented cellular damage (LDH release) (PLY [1]): more than 95% | inhibition at 1 µM (PLY [1]; A549, read-out: inhibition of PLY in cellular experiments at 1 µM): ~20% | inhibition at 6 µM (PLY [1]; A549, read-out: inhibition of PLY in cellular experiments at 6 µM, 6 µM, after 24 h): > 90% | Kd (wild-type PLY [2]): 0.256 µM | residence time (wild-type PLY [2]): 36.2 min | koff (wild-type PLY [2]; read-out: koff (off-rate)): 0.00046 s⁻¹ | kon (wild-type PLY [2]; read-out: kon (on-rate)): 1800 M⁻¹ s⁻¹ | Inhibition of PTP1B [3]: inactive; also recorded: without detecting inhibition | Survival of A549 cells infected with D39Δcps [4]: almost entirely survived | duration of activity in the cellular infection assays [4]: about 4 h | Inhibition of lysis of K562 cells by NK cells (perforin): did not inhibit | reduction of median target cell lysis compared to DMSO control (perforin): 15.6% | Inhibition of SARS-CoV2 main protease (SARS-CoV2 main protease): inactive; also recorded: without detecting inhibition | Effect of inhibitor alone on A549 cells (PLY [5]): harmless to cells | Protection of A549 cells from PLY (microscopy) (PLY [5]): effectively protected cells from PLY-associated cellular damage | Cytotoxicity for K562 cells alone (K562 cells): not cytotoxic

O=Cc1ccc(-c2ccc(Cl)cc2Cl)o1 [PB-3.1]
PLY inhibition in the hemolysis assay (qualitative) (wild-type PLY [6]): no inhibitors; also recorded: did not inhibit PLY alone

Cc1cc(C)cc(N2C(=O)CC(=O)NC2=O)c1 [PB-2.3]
IC50 (95% CI), inhibition of hemolysis by wild-type PLY (wild-type PLY [6]): Inactive | PLY inhibition in the hemolysis assay (qualitative) (wild-type PLY [6]): no inhibitors; also recorded: did not inhibit PLY alone

COc1ccc(C=C2C(=O)NC(=O)NC2=O)cc1COc1ccc(F)cc1F [PB-1]
Inhibition of PLY-induced cellular damage, LDH assay (qualitative) (PLY [1]): significant concentration-dependent inhibition of PLY | IC50 (Perfringolysin O (PFO)): 4.6 µM | IC50 (wild-type PLY [6]): 38 ± 6 µM | Inhibition of hemoglobin release, virtual hit screen (wild-type PLY [6]): actively hindering hemoglobin release at all three concentrations; also recorded: displayed inhibition

— article PMC11053136 (Nature Communications, 2024)
